# “Also recorded” adds a separate entry of the source. Like-named read-outs stand apart in the source and are kept apart here.
# Columns and labels:
# OVCAR4 = details: cited from earlier work
# [1] = tested on: PAR1-expressing breast cancer cells; details: through Akt; cited from earlier work
# PAR1-MCF7/N55 = details: cited from earlier work
# PAR1 [2] = details: guinea pigs, cited from earlier work
# PAR1 [3] = details: guinea pig platelets; cited from earlier work
# MDA-MB-231 = MDA-MB-231 (s.q.), 10 mg/kg (i.p. q2d) combination with docetaxel (10 mg/kg i.p. once weekly), p < 0.01; cited from earlier work
# PAR1 [4] = details: cited from earlier work
# SKOV3 = SKOV3 (i.p.), 10 mg/kg (s.c. 5 days per week), single agent; cited from earlier work
# PAR1 [5] = details: guinea pigs, intravenous administration; cited from earlier work
# Akt = details: established tumors treated for 5 days; cited from earlier work
# GFP/MDA-MB-231 = GFP/MDA-MB-231 (i.v.), 10 mg/kg (s.c. 5 days per week), single agent, p < 0.001; cited from earlier work
# CXCR1/2 = details: sepsis, SIRS, DIC, septic mice; cited from earlier work
# PAR4 [6] = details: thrombin-preactivated human platelets; cited from earlier work
# PAR4 [7] = details: cited from earlier work
# PAR1 [8] = details: selectivity for PAR4; cited from earlier work
# PAR4 [9] = details: guinea pigs, cited from earlier work
# PAR1 [10] = details: cited from earlier work; for Outcome: sepsis, SIRS, DIC, mice
# PAR1 [11] = details: rat aortic rings, vascular tissue preparations; cited from earlier work
# PAR4 [12] = details: cited from earlier work; remark: listed apart in the source
# PAR4 [13] = details: cited from earlier work; remark: listed apart in the source
# PAR4 [14] = details: wire injury to the carotid artery of mice, fluorescent platelets; cited from earlier work
# PAR4 [15] = details: cited from earlier work; remark: listed apart in the source
# human neutrophils = details: cited from earlier work
# PAR4 [16] = details: mice, induced by AYPGKF plus epinephrine; cited from earlier work
# PAR4 [17] = details: PAR4 agonist in mouse knee joint; cited from earlier work
# PAR4 [18] = details: Inflammation/paw edema, carrageenan, mice; cited from earlier work
# [19] = tested on: thromboxane, ADP, collagen, or GPIb/IX/V receptors; details: cited from earlier work
# PAR4 [20] = details: sepsis, SIRS, DIC, mice; cited from earlier work
# PAR1 [21] = details: at higher concentrations; cited from earlier work
# PAR4 [22] = details: cited from earlier work; remark: listed apart in the source
# [23] = tested on: breast MCF-7 cells and melanoma SK-Mel2 cells; details: inhibition of growth, cell line not specified (MCF-7 and SK-Mel2 tested); cited from earlier work
# [24] = mouse, in vivo
substance,measurement,setting,value
C15H31CONH-KKSRALF-NH2 [Pepducin P1pal-7],Efficacy: diaphragm metastasis / peritoneal dissemination,"OVCAR4; OVCAR4 (i.p.), 3.6 mg/kg (i.p. q2d) combination with docetaxel (10 mg/kg i.p. once weekly), p < 0.005",Significant reduction in diaphragm metastasis (p < 0.005)
same,Efficacy: inhibition in ascites formation,"OVCAR4; OVCAR4 (i.p.), 10 mg/kg (i.p. q2d), single agent",60%
same,ascites production in peritoneal ovarian cancer,OVCAR4; cell line not given,significantly inhibited
same,angiogenesis of peritoneal ovarian cancers,OVCAR4,almost completely blocked
same,viability of PAR1-expressing breast cancer cells,[1],inhibited the viability
same,"Efficacy: tumor burden, reduction in tumor growth","PAR1-MCF7/N55; PAR1-MCF7/N55 (s.q.), 10 mg/kg (s.c. q2d), single agent, p < 0.01",62%
same,angiogenesis of breast cancers,PAR1-MCF7/N55,almost completely blocked
same,prolongation of the occlusion time,"PAR1 [2]; 0.3 mg/kg i.v., carotid injury model",approximately 50%
same,Outcome (arterial occlusion time),"PAR1 [2]; intravenous, carotid artery FeCl3 injury model",prolonged the mean occlusion time; also recorded: Prolonged collagen-induced arterial occlusion time in guinea pigs
same,Outcome (platelet aggregation),PAR1 [3],Inhibition of guinea pigs platelet aggregation
same,"Efficacy: tumor burden, reduction in tumor growth",MDA-MB-231,95%
same,p38 MAPK activation,"PAR1 [4]; human platelets, collagen",blocked p38 MAPK activation
same,collagen-induced platelet aggregation,PAR1 [4]; human platelets,inhibition of collagen-induced platelet aggregation
same,propagation of platelet–platelet thrombi,"PAR1 [4]; human whole blood, arterial flow conditions",significantly reduced
same,Efficacy: ascites formation,SKOV3,"Ascites formation, complete inhibition of ascites"
same,collagen-induced thrombocytopenia,PAR1 [5],protected from collagen-induced thrombocytopenia
same,phosphorylation of Akt,Akt,significantly inhibited
same,Efficacy: reduction in metastasis to lung,GFP/MDA-MB-231,88%
N-LCA-YSRVGRSVTD-NH2 [x1/2LCA-i1],Outcome,CXCR1/2,"CXCR1/2 pepducins reduced organ damage, inhibited neutrophil migration, improved survival, and inhibited DIC"
N-pal-ATGAPRLPST-NH2 [Pepducin P4pal-i1],Outcome (epinephrine-induced Ca2+ flux and aggregation),PAR4 [6],inhibited; also recorded: Inhibition of epinephrine-induced Ca^2+ flux
same,"human platelet aggregation, combined with bivalirudin",PAR4 [7],significant inhibition of human platelet aggregation
same,effect on PAR1-induced platelet aggregation,PAR1 [8],without affecting
same,decrease of arterial occlusion,"PAR4 [9]; carotid injury model, single agent",approximately 50%
same,Outcome (arterial occlusion),PAR4 [9]; when combined with bivalirudin or P1pal-7,"Inhibition of arterial occlusion in guinea pigs, when combined with bivalirudin or P1pal-7"
same,"arterial thrombosis, combined with bivalirudin",PAR4 [9],suppression of arterial thrombosis in guinea pigs to a much higher degree than bivalirudin alone
N-pal-AVANRSKKSRALF-NH2 [Pepducin P1pal-13],Outcome,PAR1 [10],"Temporally modulated survival, vascular leakage, and DIC"
same,"survival and DIC, treatment at late time points (agonist)","PAR1 [10]; septic mice, by inhibiting leakage of endothelial cell tight junctions",improved survival and prevented DIC
N-pal-RCLSSSAVANRSKKSRALF-NH2 [Pepducin P1pal-19],"Outcome (agonist activity: Ca2+ signal, relaxation, prostaglandin E2 release)",PAR1 [11],"promote Ca^2+ signals, prostaglandin E2 release, and persistent relaxation of rat aortic rings in a concentration-dependent manner; also recorded: Promotes Ca^2+ signal, relaxation of rat aortic rings, and prostaglandin E2 release"
"N-pal-RLAHGYRRGS-NH2 [Rev-P4pal-10, reference compound]",Target (activity class),PAR4 [12]; reverse-sequence control,Inactive
N-pal-RSLSSSAVANRS-NH2 [Pepducin P1pal-12S],Outcome,PAR1 [10],"Temporally modulated survival, vascular leakage, and DIC"
same,"survival and DIC, treatment at early time points",PAR1 [10]; septic mice,improved survival and prevented DIC
same,"survival and DIC, treatment at late time points (antagonist)",PAR1 [10]; septic mice,but not late time points
N-pal-RTLFKAHMGQKHRAMR-NH2 [x1/2pal-i3],Outcome,CXCR1/2,"CXCR1/2 pepducins reduced organ damage, inhibited neutrophil migration, improved survival, and inhibited DIC"
N-pal-SGRRYGHALR-NH2 [Pepducin P4pal-10],Outcome (tail bleeding time),PAR4 [13]; mice infused with pepducin,prolonged tail-bleeding times and unstable thrombi formation; also recorded: Prolonged tail bleeding time in mice
same,extension of bleeding time,"PAR4 [13]; mice, intravenous injection, 4 h point",approximately twofold
same,bleeding time,"PAR4 [13]; mice, intravenous injection, 24 h time point",returned to baseline
same,increase in bleeding time,"PAR4 [13]; mice, intravenous injection, after 5 min, maintained for 1 h",threefold to fivefold
same,prolongation of bleeding time,"PAR4 [13]; mice, subcutaneous injection of 3 mg/kg, 4 h after injection",sixfold
same,PD half-life,"PAR4 [13]; mice, subcutaneous injection of 3 mg/kg",approximately 14 h
same,Outcome (platelet accumulation),PAR4 [14],significant delay in accumulation; also recorded: Delayed platelet accumulation
same,Outcome (infarct size),PAR4 [15]; ischemia/reperfusion in rats,Reduced infarct size in ischemia/reperfusion in rats
same,reduction of myocardium infarct size,"PAR4 [15]; rats, intravenous bolus of 10 μg/kg, I/R injury model",approximately 20%
same,"migration of human neutrophils to IP-10, SDF-1α, and S1P",human neutrophils,no effect
same,migration of human neutrophils to thrombin,human neutrophils,completely blocked
same,systemic thrombus formation,PAR4 [16],protected against systemic thrombus formation
same,Outcome (joint inflammation),PAR4 [17],block the proinflammatory and pronociceptive effects of a PAR4 agonist in the mouse knee joint and alleviate acute joint inflammation; also recorded: Reduced agonist induced joint vascular conductance and edema
same,Outcome,PAR4 [18],Reduced edema and granulocyte recruitment induced by carrageenan
same,"effect on ADP, thromboxane, and GPIb/IX/V receptors",[19],did not affect
same,Outcome,PAR4 [20],"protected against systemic inflammation and DIC; also recorded: Reduced organ damage and inflammatory mediators, inhibited neutrophil migration"
same,block of PAR1 activation,PAR1 [21],partially block
same,Outcome (thrombin generation),PAR4 [22],delayed the generation of thrombin
same,AYPGKF (PAR4 agonist)-induced aggregation,PAR4 [12],completely blocked
same,human platelet aggregation to PAR4 agonists,PAR4 [12],inhibited
Pal-LTYAWHTSFK [SMO-i2-12],IC50,[23],60 nM
pal-CGRRYGHALR [[^14C]-P4pal-10C],increase of radioactivity in urine,[24],fivefold
same,radioactivity in urine,[24],detected
same,tissues in which radioactivity appeared,"[24]; iv, 1.4 mg/kg","liver, kidney, lungs, and spleen, and lesser amounts to other tissues"
same,tissues in which radioactivity appeared,"[24]; iv, 14 mg/kg","kidney, lungs, liver, and spleen with lesser radioactivity appearing in the heart, blood, muscle, and fat, but not the brain"
same,tissues in which radioactivity appeared,"[24]; sc, 1 mg/kg","liver, kidney, lungs, and blood"
same,tissues in which radioactivity appeared,"[24]; sc, 10 mg/kg","fairly even distribution of radioactivity to the kidney, liver, spleen, blood, heart, and lungs, with lesser amounts to muscle and fat, but not to brain"

# From PMC3780409 (Methods in molecular biology (Clifton, N.J.), 2011)
